Data taken from US20200405752A1, “ANTITUMOR AGENT, ANTITUMOR EFFECT ENHANCER, AND ANTITUMOR KIT” (FUJIFILM Corporation, priority 2018, published 2020).

Tested on: human cholangiocarcinoma cell line TFK-1 (spheroid culture)
Test: Cell viability (CellTiter Glo) of TFK-1 in spheroid culture in combination with cisplatin
Type: cell-based
Conditions: for viability at 0.001 µM / viability at 0.003 µM / viability at 0.01 µM / viability at 0.03 µM / viability at 0.1 µM / viability at 0.3 µM / viability at 1 µM / viability at 3 µM / viability at 10 µM / IC50: Homo sapiens; for viability at 0.001 µM / viability at 0.003 µM / viability at 0.01 µM / viability at 0.03 µM / viability at 0.1 µM / viability at 0.3 µM / viability at 1 µM / viability at 3 µM / viability at 10 µM: 72 h, TFK-1 spheroid, with cisplatin 10 μmol/L, 3 days; for viability at 0.001 µM: test substance 1.0 nM; for viability at 0.003 µM: test substance 3.0 nM; for viability at 0.01 µM: test substance 10.0 nM; for viability at 0.03 µM: test substance 30.0 nM; for viability at 0.1 µM: test substance 100.0 nM; for viability at 0.3 µM: test substance 300.0 nM; for viability at 1 µM: test substance 1000.0 nM; for viability at 3 µM: test substance 3000.0 nM; for viability at 10 µM: test substance 10000.0 nM; for IC50 / CI: TFK-1 spheroid culture; for CI: combination with cisplatin
Source text: On the combinational effect of the embodiment of the invention, the results of evaluation using a combination index (CI) which is a quantitative index of the combinational effect are shown. The CI can be calculated by the following equation according to Cancer Research, 2010, Vol. 70, pp. 440 to 446.
That is, in a case where the drugs to be used in combination are drug 1 and drug 2, the CI at a certain drug concentration is
CI={(cell viability in case of using drug 1 and drug 2 in combination)/100}/{[(cell viability in case of using drug 1)/100]×[(cell viability in case of using drug 2)/100]}
Evaluation of Antitumor Activity Against Cholangiocarcinoma Cell Line TFK-1 by Combined Use of Cisplatin in Spheroid Culture
Gemcitabine, cisplatin, and methanesulfonate of Compound A were used as test substances.
Gemcitabine hydrochloride (manufactured by Plantex Co., Ltd.) dissolved in dimethyl sulfoxide (DMSO) was used as gemcitabine. Cisplatin (Cat. #039-20091, manufactured by Wako Pure Chemical Industries, Ltd.) dissolved in DMSO was used as cisplatin.
Human cholangiocarcinoma cell line TFK-1 cells were subcultured in RPMI-1640 medium supplemented with 10% serum (Cat. #10437-028, manufactured by Thermo Fisher Scientific Inc.). During this test, all cell cultures were carried out in a CO2 incubator (set to 37° C. and 5% CO2, saturated with water vapor). The culture was diluted with 10% serum-supplemented medium to a cell density of 5000 cells/well/100 μL, and seeded on an Ultra-Low Attachment 96-well plate (Cat. #7007, manufactured by Corning Incorporated). The cells were cultured for 4 days to form spheroids.
The methanesulfonate of Compound A and gemcitabine were dissolved in DMSO to prepare 10 mmol/L DMSO solutions thereof. The thus-prepared DMSO solutions were diluted sequentially with DMSO to prepare DMSO solutions having a final treatment concentration of 1000-fold dilution. Cisplatin was dissolved in DMSO to prepare a 100 mmol/L DMSO solution. The thus-prepared DMSO solution of cisplatin was diluted with DMSO to prepare a DMSO solution having a final treatment concentration of 5000-fold dilution. Further, the DMSO solution of cisplatin was diluted with 10% serum-supplemented medium to prepare a cisplatin-containing medium having a final treatment concentration of 10-fold dilution. The DMSO diluted solutions of Compound A and gemcitabine were diluted with the cisplatin-containing medium to prepare treatment liquids having a final treatment concentration of 10-fold dilution. Compound A and gemcitabine were used with a maximum concentration of 10 μmol/L at a common ratio of 1/3 and 9 concentrations in combination with cisplatin (10 μmol/L).
10 μL of Compound A or gemcitabine diluted with the cisplatin-containing medium was added to each well. In addition, a group in which only a solvent containing no drug was added to wells in which cells were seeded (positive control), and a group in which only a solvent containing no drug was added to wells containing only a medium (negative control) were provided. All groups were set to n=3 well.
The cells were cultured for 3 days after the addition of the drug, and the cell viability was evaluated using a CellTiter Glo (registered trademark) Reagent (Cat. #G7570, manufactured by Promega Corporation) with the intracellular ATP level as an index. The concentration that inhibits cell viability by 50% (IC50 value) was calculated using XLFit software Ver.3 (registered trademark, manufactured by CTC Laboratory Systems Corporation).
The cell viability of each well was determined with the luminescence signal level of the negative control being 0% cell viability and the luminescence signal level of the positive control being 100% cell viability. The average value and standard deviation of the cell viability of each treatment group were calculated to prepare Table 9.

**Q.** What does the source list for `Nc1ccn([C@@H]2O[C@H](CO)[C@@H](O)C2(F)F)c(=O)n1` [Gemcitabine]?
**A.** viability at 0.001 µM: 97%; viability at 0.003 µM: 97%; viability at 0.01 µM: 97%; viability at 0.03 µM: 89%; viability at 0.1 µM: 90%; viability at 0.3 µM: 83%; viability at 1 µM: 83%; viability at 3 µM: 77%; viability at 10 µM: 66%; IC50 (in combination with cisplatin (10 μmol/L)): ≥ 10000 nM; CI: 0.78

**Q.** `Nc1ccn([C@@H]2S[C@H](CO)[C@@H](O)[C@@H]2F)c(=O)n1` [Compound A, 1-(2-deoxy-2-fluoro-4-thio-β-D-arabinofuranosyl)cytosine] was tested. Which viability at 0.001 µM did it give?
**A.** 97%

**Q.** What about the viability at 0.003 µM of the same molecule?
**A.** 101%

**Q.** What about the viability at 0.01 µM of the same molecule?
**A.** 96%

**Q.** And the viability at 0.03 µM?
**A.** 91%

**Q.** And the viability at 0.1 µM?
**A.** 90%

**Q.** And the viability at 0.3 µM?
**A.** 65%

**Q.** And the viability at 1 µM?
**A.** 23%

**Q.** And the viability at 3 µM?
**A.** 14%

**Q.** What about the viability at 10 µM of the same molecule?
**A.** 9%

**Q.** What about the IC50 (in combination with cisplatin (5 μmol/L)) of the same molecule?
**A.** 469 nM

**Q.** What about the CI of the same molecule?
**A.** 0.13
